Results taken from ChEMBL document CHEMBL1641434, “Topical anti-inflammatory activity of boropinic acid and its natural and semi-synthetic derivatives” (2011).

What was measured:
Assay type in all cases: functional
Mus musculus [1] = assay: Antiinflammatory activity in CD1 mouse assessed as inhibition of croton oil-induced ear edema at 1 umol administered topically per cm'2 of ear relative to control
Mus musculus [2] = assay: Antiinflammatory activity in CD1 mouse assessed as inhibition of croton oil-induced ear edema at 0.3 umol administered topically per cm'2 of ear relative to control
Mus musculus [3] = assay: Antiinflammatory activity in CD1 mouse assessed as inhibition of croton oil-induced ear edema per cm'2 administered topically
Mus musculus [4] = assay: Antiinflammatory activity in CD1 mouse assessed as inhibition of croton oil-induced ear edema at 0.1 umol administered topically per cm'2 of ear relative to control

Row | SMILES | inhibition (INH) (Mus musculus [1]) | inhibition (INH) (Mus musculus [2]) | ID50 (Mus musculus [3]) | inhibition (INH) (Mus musculus [4])
1 | COc1ccc2c(c1)c(CC(=O)O)c(C)n2C(=O)c1ccc(Cl)cc1 [INDOMETHACIN] | 87% | 62% | 0.23 µmol | 26%
2 | CC(C)=CCOc1ccc(/C=C/C(=O)O)cc1N | 81% | 43% | 0.33 µmol | 22%
3 | CC(C)=CCOc1ccc(/C=C/C(=O)O)cc1 | 67% | 30% | 0.5 µmol | 13%
4 | CC(C)=CCOc1ccc(/C=C/C(=O)O)cc1I | 88% | 67% | 0.2 µmol | 30%
5 | CC(C)=CCOc1ccc(/C=C/C(=O)O)cc1Br | – | 19% | – | –
6 | CC(C)=CCOc1ccc(/C=C/C(=O)O)cc1Cl | 91% | 49% | 0.26 µmol | 25%
7 | CC(C)=CCOc1ccc(/C=C/C(=O)O)cc1F | – | 39% | – | –
8 | CC(C)=CCOc1ccc(/C=C/C(=O)O)cc1[N+](=O)[O-] | 91% | 68% | 0.18 µmol | 33%
9 | COc1cc(/C=C/C(=O)O)ccc1OCC=C(C)C [BOROPINIC ACID] | 55% | 36% | 0.72 µmol | 12%
10 | CC(C)=CCOc1ccc(/C=C/C(=O)O)cc1C | – | 23% | – | –
11 | CC(Cc1ccc(O)c(O)c1)C(C)Cc1ccc(O)c(O)c1 (stereo not given) [NORDIHYDROGUAIARETIC ACID] | 65% | 33% | 0.54 µmol | 19%
